Reference: patent US20060110385A1, “Means and methods for diagnosing and treating affective disorders” (Affectis Pharmaceuticals AG, priority 2003, published 2006)
“Also recorded” adds a separate entry of the source.

Legend:
P2X7R [1] = biological target: T1, P2X7R (Homo sapiens, UniProt Q99572); conditions: dose response curve, Y-axis ion current; cited from earlier work
T1 sequence (Q99572 1-595): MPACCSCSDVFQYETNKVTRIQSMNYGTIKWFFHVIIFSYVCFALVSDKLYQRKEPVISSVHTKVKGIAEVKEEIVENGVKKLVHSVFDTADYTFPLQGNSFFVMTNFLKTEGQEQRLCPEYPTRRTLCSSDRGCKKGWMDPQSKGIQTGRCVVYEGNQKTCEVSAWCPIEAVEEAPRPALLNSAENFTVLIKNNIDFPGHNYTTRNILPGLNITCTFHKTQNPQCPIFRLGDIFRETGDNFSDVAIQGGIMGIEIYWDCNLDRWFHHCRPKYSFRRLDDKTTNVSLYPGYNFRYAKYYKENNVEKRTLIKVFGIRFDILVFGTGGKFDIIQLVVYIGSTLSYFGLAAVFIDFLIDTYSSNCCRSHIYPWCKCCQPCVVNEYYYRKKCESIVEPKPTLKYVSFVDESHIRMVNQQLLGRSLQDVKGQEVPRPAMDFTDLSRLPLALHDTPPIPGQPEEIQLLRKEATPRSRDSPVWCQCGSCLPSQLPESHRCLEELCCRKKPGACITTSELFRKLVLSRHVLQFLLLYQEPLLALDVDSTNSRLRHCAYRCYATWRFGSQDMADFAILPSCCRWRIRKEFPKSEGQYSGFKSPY

P2X7R [2] = biological target: T1, P2X7R; test: Calcium entry (Fluo-4 AM) in HT-22 cells overexpressing human P2X7R; assay type: cell-based; set-up: expressed in transfected cells; conditions: 20 μM BzATP or 50 μM tenidap
Source text: Yet another method for identifying P2X7R agonists was devised by generating a immortalised mouse cell line that overexpresses the human P2X7R gene under the control of the human cytomegalovirus (CMV) early promoter/enhancer region. The human P2X7R cDNA was inserted into the pcDNA3.1 vector (Invitrogen) and transfected into the mouse hippocampal cell line HT-22 using Lipofectamine (Invitrogen) according to the manufacturer's specifications. One day after transfection, culture medium containing 500 μg/ml G418 was added to the cells. Resistant clones were separately isolated and cultured 14 days after applying the selection medium.
The agonistic activity of a compound was evaluated by measuring calcium entry in the cells that overexpress the human P2X7R. Cells were cultured in 96 well plates and incubated at 37° C. with 5% CO2 DMEM with 10% foetal calf serum (Gibco) until they reached confluence. Cells were then loaded for one hour with 10 μM of Fluo-4 AM (Molecular Probes). Fluo-4 AM is a fluorescent dye that binds to intracellular calcium. […] Agonist activity was detected by measuring an increase in calcium influx which results in increased binding to Fluo-4 AM and increased fluorescence. Changes in fluorescence signal are measured using a Fluostar Optima plate reader (BMG biotech). […] Thus, both compound stimulated the activity of P2X7R which results in an influx of ions into the cells.

P2X7R [3] = biological target: T2, P2X7R (Mus musculus, UniProt Q9Z1M0); test: Calcium influx into HT-22 cells (Oregon green AM ester); assay type: cell-based; conditions: 100 μM BzATP, 15 minutes
T2 construct: endogenous in cells; host or cells: HT-22 (immortalised mouse hippocampal cell line)
T2 sequence (Q9Z1M0 1-595): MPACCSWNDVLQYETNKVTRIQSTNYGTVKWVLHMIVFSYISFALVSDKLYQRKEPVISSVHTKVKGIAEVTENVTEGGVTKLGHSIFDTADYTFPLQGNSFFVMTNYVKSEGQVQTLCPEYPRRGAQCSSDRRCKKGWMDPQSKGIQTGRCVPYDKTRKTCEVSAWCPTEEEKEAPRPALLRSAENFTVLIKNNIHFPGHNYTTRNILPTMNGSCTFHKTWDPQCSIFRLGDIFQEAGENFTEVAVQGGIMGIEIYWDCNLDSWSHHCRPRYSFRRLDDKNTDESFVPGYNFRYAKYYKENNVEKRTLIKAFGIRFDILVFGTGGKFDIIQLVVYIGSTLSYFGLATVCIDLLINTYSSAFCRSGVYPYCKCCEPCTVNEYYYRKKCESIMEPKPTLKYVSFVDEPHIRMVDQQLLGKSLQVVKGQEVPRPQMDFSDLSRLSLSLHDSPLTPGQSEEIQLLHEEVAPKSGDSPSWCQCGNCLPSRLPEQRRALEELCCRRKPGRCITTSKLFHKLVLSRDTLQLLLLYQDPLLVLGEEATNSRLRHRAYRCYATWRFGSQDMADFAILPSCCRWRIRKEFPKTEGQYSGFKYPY
Source text: Since P2X7R is an ATP-gated ion channel which allows the entry of calcium and sodium ions into cells, a method for identifying P2X7R agonist was established by monitoring calcium influx into HT-22 cells. […] Calcium movement into the cells was visualised under a fluorescent microscope with a fluorescein filter (wavelength 492/517 nm). Oregon green AM ester is a fluorescent dye that binds to intracellular calcium.
Activation of P2X7R by the agonist was inhibited by oATP (FIG. 18) as illustrated by the absence of green fluorescence in the cells.

mice = test: Open field test (locomotor activity) after BzATP; assay type: in vivo, mouse; conditions: 50 μM BzATP, 24 hours after injection, 30 minutes
Procedure: Locomotor activity was monitored for a period of 30 minutes using a video camera. Overall distance travelled by the animals during the testing period was then analysed by means of VideoMot2 computer software (TSE GmbH, Bad Homburg).

2′-3′-O-(4-Benzoylbenzoyl)adenosine 5′-triphosphate [BzATP]
EC50 (P2X7R [1]): 8 µM | fluorescence intensity (calcium influx, Fluo-4 AM) (P2X7R [2]): rapid increase in fluorescence intensity | calcium influx (green fluorescence) (P2X7R [3]): Increase calcium influx; also recorded: increase in green fluorescence | locomotor activity (overall distance travelled) (mice): No difference in locomotor activity
